Measured values: PubChem BioAssay (NCI)
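Exposure lasted 48 hours, with cells grown in 96-well plates and compounds tested at five concentrations. TGI: concentration producing complete growth inhibition.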

Tests used:
Assay in all cases: NCI tumour cell line growth inhibition, 48 h
[1] = system: UACC-62 melanoma
[2] = system: RXF 393 renal
[3] = system: TK-10 renal
[4] = system: DMS 273 small cell lung
[5] = system: SF-295 CNS
[6] = system: U251 CNS
[7] = system: NCI-H460 lung
[8] = system: UO-31 renal
[9] = system: HOP-92 NSCLC
[10] = system: IGROV1 ovarian
[11] = system: HT29 colon
[12] = system: NCI-H23 lung
[13] = system: M19-MEL melanoma
[14] = system: M14 melanoma
[15] = system: HOP-18 NSCLC
[16] = system: MALME-3M melanoma
[17] = system: HCT-15 colon
[18] = system: SK-OV-3 ovarian
[19] = system: SNB-78 CNS
[20] = system: LXFL 529 NSCLC
[21] = system: SK-MEL-28 melanoma
[22] = system: HOP-62 NSCLC
[23] = system: SN12C renal
[24] = system: SNB-19 CNS
[25] = system: KM20L2 colon
[26] = system: HCC-2998 colon
[27] = system: OVCAR-4 ovarian
[28] = system: XF 498 CNS
[29] = system: RXF-631 renal
[30] = system: COLO 205 colon
[31] = system: DMS 114 small cell lung
[32] = system: 786-0 renal
[33] = system: DLD-1 colon
[34] = system: K-562 leukemia
[35] = system: LOX IMVI melanoma
[36] = system: CAKI-1 renal
[37] = system: OVCAR-3 ovarian
[38] = system: A549 NSCLC
[39] = system: HL-60(TB) leukemia
[40] = system: SF-268 CNS
[41] = system: EKVX NSCLC
[42] = system: ACHN renal
[43] = system: SW-620 colon
[44] = system: OVCAR-8 ovarian
[45] = system: OVCAR-5 ovarian
[46] = system: RPMI-8226 leukemia
[47] = system: UACC-257 melanoma
[48] = system: HCT-116 colon
[49] = system: NCI-H226 lung
[50] = system: NCI-H522 lung
[51] = system: KM12 colon
[52] = system: SK-MEL-2 melanoma
[53] = system: A498 renal
[54] = system: SF-539 CNS
[55] = system: MOLT-4 leukemia
[56] = system: SNB-75 CNS
[57] = system: CCRF-CEM leukemia
[58] = system: SK-MEL-5 melanoma

Question: With `Sc1ccccc1S` as the compound, how does the TGI [1] read?
Answer: > 100 µM

Question: What about the TGI [2] of the same compound?
Answer: > 100 µM

Question: And the TGI [3]?
Answer: > 10 µM

Question: And the TGI [4]?
Answer: > 100 µM

Question: And the TGI [5]?
Answer: > 100 µM

Question: And the TGI [6]?
Answer: > 100 µM

Question: What about the TGI [7] of the same compound?
Answer: > 100 µM

Question: And the TGI [8]?
Answer: > 10 µM

Question: And the TGI [9]?
Answer: > 100 µM

Question: And the TGI [10]?
Answer: > 100 µM

Question: And the TGI [11]?
Answer: > 100 µM

Question: What about the TGI [12] of the same compound?
Answer: > 100 µM

Question: What about the TGI [13] of the same compound?
Answer: > 100 µM

Question: What about the TGI [14] of the same compound?
Answer: > 100 µM

Question: And the TGI [15]?
Answer: > 100 µM

Question: What about the TGI [16] of the same compound?
Answer: > 100 µM

Question: What about the TGI [17] of the same compound?
Answer: > 100 µM

Question: What about the TGI [18] of the same compound?
Answer: > 100 µM

Question: And the TGI [19]?
Answer: > 100 µM

Question: What about the TGI [20] of the same compound?
Answer: > 100 µM

Question: What about the TGI [21] of the same compound?
Answer: > 100 µM

Question: And the TGI [22]?
Answer: > 100 µM

Question: And the TGI [23]?
Answer: > 100 µM

Question: What about the TGI [24] of the same compound?
Answer: > 100 µM

Question: What about the TGI [25] of the same compound?
Answer: > 100 µM

Question: What about the TGI [26] of the same compound?
Answer: > 100 µM

Question: What about the TGI [27] of the same compound?
Answer: > 100 µM

Question: What about the TGI [28] of the same compound?
Answer: > 100 µM

Question: And the TGI [29]?
Answer: > 100 µM

Question: And the TGI [30]?
Answer: > 100 µM

Question: What about the TGI [31] of the same compound?
Answer: > 100 µM

Question: What about the TGI [32] of the same compound?
Answer: > 100 µM

Question: And the TGI [33]?
Answer: > 100 µM

Question: And the TGI [34]?
Answer: > 100 µM

Question: What about the TGI [35] of the same compound?
Answer: > 100 µM

Question: What about the TGI [36] of the same compound?
Answer: > 100 µM

Question: What about the TGI [37] of the same compound?
Answer: > 100 µM

Question: And the TGI [38]?
Answer: > 100 µM

Question: And the TGI [39]?
Answer: > 100 µM

Question: What about the TGI [40] of the same compound?
Answer: > 100 µM

Question: And the TGI [41]?
Answer: > 10 µM

Question: And the TGI [42]?
Answer: > 100 µM

Question: What about the TGI [43] of the same compound?
Answer: > 100 µM

Question: And the TGI [44]?
Answer: > 10 µM

Question: How did the TGI [1] turn out when `CC1=C(C(=O)Nc2ccc([N+](=O)[O-])cc2)C(c2cccc([N+](=O)[O-])c2)C(C(=O)Nc2ccc([N+](=O)[O-])cc2)=C(C)N1` was run?
Answer: > 100 µM

Question: And the TGI [2]?
Answer: > 100 µM

Question: And the TGI [45]?
Answer: > 100 µM

Question: What about the TGI [3] of the same compound?
Answer: > 100 µM

Question: What about the TGI [5] of the same compound?
Answer: > 100 µM

Question: And the TGI [6]?
Answer: > 100 µM

Question: And the TGI [7]?
Answer: > 100 µM

Question: What about the TGI [8] of the same compound?
Answer: > 100 µM

Question: And the TGI [9]?
Answer: 39 µM

Question: What about the TGI [10] of the same compound?
Answer: > 100 µM

Question: And the TGI [11]?
Answer: > 100 µM

Question: And the TGI [12]?
Answer: 66.4 µM

Question: And the TGI [13]?
Answer: > 100 µM

Question: What about the TGI [14] of the same compound?
Answer: > 100 µM

Question: What about the TGI [46] of the same compound?
Answer: > 100 µM

Question: What about the TGI [15] of the same compound?
Answer: > 100 µM

Question: And the TGI [16]?
Answer: > 100 µM

Question: What about the TGI [17] of the same compound?
Answer: > 100 µM

Question: What about the TGI [18] of the same compound?
Answer: 71.6 µM

Question: And the TGI [19]?
Answer: > 100 µM

Question: What about the TGI [47] of the same compound?
Answer: 56.1 µM

Question: And the TGI [20]?
Answer: > 100 µM

Question: What about the TGI [21] of the same compound?
Answer: > 100 µM

Question: And the TGI [22]?
Answer: > 100 µM

Question: And the TGI [23]?
Answer: > 100 µM

Question: What about the TGI [24] of the same compound?
Answer: > 100 µM

Question: And the TGI [25]?
Answer: > 100 µM

Question: And the TGI [26]?
Answer: > 100 µM

Question: What about the TGI [27] of the same compound?
Answer: > 100 µM

Question: And the TGI [28]?
Answer: 41.3 µM

Question: And the TGI [48]?
Answer: > 100 µM

Question: And the TGI [49]?
Answer: > 100 µM

Question: And the TGI [29]?
Answer: > 100 µM

Question: What about the TGI [50] of the same compound?
Answer: > 100 µM

Question: What about the TGI [51] of the same compound?
Answer: > 100 µM

Question: What about the TGI [52] of the same compound?
Answer: > 100 µM

Question: And the TGI [30]?
Answer: > 100 µM

Question: And the TGI [31]?
Answer: > 100 µM

Question: What about the TGI [32] of the same compound?
Answer: > 100 µM

Question: What about the TGI [53] of the same compound?
Answer: > 100 µM

Question: And the TGI [33]?
Answer: > 100 µM

Question: And the TGI [34]?
Answer: > 100 µM

Question: What about the TGI [35] of the same compound?
Answer: > 100 µM

Question: What about the TGI [37] of the same compound?
Answer: > 100 µM

Question: And the TGI [38]?
Answer: > 100 µM

Question: And the TGI [54]?
Answer: > 100 µM

Question: What about the TGI [55] of the same compound?
Answer: > 100 µM

Question: What about the TGI [39] of the same compound?
Answer: > 100 µM

Question: What about the TGI [40] of the same compound?
Answer: > 100 µM

Question: And the TGI [56]?
Answer: > 100 µM

Question: What about the TGI [41] of the same compound?
Answer: > 100 µM

Question: What about the TGI [42] of the same compound?
Answer: > 100 µM

Question: And the TGI [57]?
Answer: > 100 µM

Question: What about the TGI [43] of the same compound?
Answer: > 100 µM

Question: What about the TGI [44] of the same compound?
Answer: > 100 µM

Question: Which TGI [2] does the source give for `COc1ccc2c(c1)C1C(CO2)C(c2ccccc2)=NN1c1ccccc1` (centres undefined) here?
Answer: > 100 µM

Question: And the TGI [45]?
Answer: > 100 µM

Question: And the TGI [58]?
Answer: > 100 µM

Question: And the TGI [3]?
Answer: > 100 µM

Question: What about the TGI [4] of the same compound?
Answer: > 100 µM

Question: What about the TGI [5] of the same compound?
Answer: > 100 µM

Question: What about the TGI [6] of the same compound?
Answer: > 100 µM

Question: And the TGI [7]?
Answer: > 100 µM

Question: What about the TGI [8] of the same compound?
Answer: > 100 µM

Question: What about the TGI [9] of the same compound?
Answer: > 100 µM

Question: What about the TGI [10] of the same compound?
Answer: > 100 µM

Question: What about the TGI [11] of the same compound?
Answer: > 100 µM

Question: And the TGI [12]?
Answer: > 100 µM

Question: And the TGI [13]?
Answer: > 100 µM

Question: And the TGI [46]?
Answer: > 100 µM

Question: What about the TGI [15] of the same compound?
Answer: > 100 µM

Question: And the TGI [16]?
Answer: > 100 µM

Question: And the TGI [18]?
Answer: > 100 µM

Question: What about the TGI [19] of the same compound?
Answer: > 100 µM

Question: What about the TGI [47] of the same compound?
Answer: > 100 µM

Question: And the TGI [20]?
Answer: > 100 µM

Question: What about the TGI [21] of the same compound?
Answer: > 100 µM

Question: And the TGI [22]?
Answer: > 100 µM

Question: And the TGI [25]?
Answer: > 100 µM

Question: And the TGI [26]?
Answer: > 100 µM

Question: What about the TGI [28] of the same compound?
Answer: > 100 µM

Question: And the TGI [48]?
Answer: > 100 µM

Question: And the TGI [29]?
Answer: > 100 µM

Question: And the TGI [50]?
Answer: > 100 µM

Question: And the TGI [51]?
Answer: > 100 µM

Question: And the TGI [52]?
Answer: > 100 µM

Question: And the TGI [30]?
Answer: > 100 µM

Question: What about the TGI [31] of the same compound?
Answer: > 100 µM

Question: And the TGI [32]?
Answer: > 100 µM

Question: What about the TGI [53] of the same compound?
Answer: > 100 µM

Question: What about the TGI [33] of the same compound?
Answer: > 100 µM

Question: And the TGI [34]?
Answer: > 100 µM

Question: What about the TGI [35] of the same compound?
Answer: > 100 µM

Question: What about the TGI [37] of the same compound?
Answer: > 100 µM

Question: And the TGI [38]?
Answer: > 100 µM

Question: What about the TGI [54] of the same compound?
Answer: > 100 µM

Question: And the TGI [55]?
Answer: > 100 µM

Question: What about the TGI [39] of the same compound?
Answer: > 100 µM

Question: What about the TGI [40] of the same compound?
Answer: > 100 µM

Question: And the TGI [56]?
Answer: 9.67 µM

Question: And the TGI [41]?
Answer: > 100 µM

Question: What about the TGI [42] of the same compound?
Answer: > 100 µM

Question: And the TGI [57]?
Answer: > 100 µM

Question: And the TGI [43]?
Answer: > 100 µM

Question: And the TGI [44]?
Answer: > 100 µM
